Assays:
Assay type in all cases: cell-based
[1] = target: T1, pool of cells with OR5A1, OR5A2, OR5AN1, OR6Y1, OR10G4, OR10G7 or OR10G9 (Homo sapiens, UniProt Q8NGN6); assay: Selection of cognate-receptor cells from a pool of OR-expressing cells with the target ligand and puromycin; conditions: 1 μM eugenol, puromycin 1 μg/ml, pool of 7 OR transfections
T1 construct: expressed in transfected cells; host or cells: HEK293T stably expressing RTP1S and RTP2; 7 separate transfections pooled
T1 sequence (Q8NGN6 1-311): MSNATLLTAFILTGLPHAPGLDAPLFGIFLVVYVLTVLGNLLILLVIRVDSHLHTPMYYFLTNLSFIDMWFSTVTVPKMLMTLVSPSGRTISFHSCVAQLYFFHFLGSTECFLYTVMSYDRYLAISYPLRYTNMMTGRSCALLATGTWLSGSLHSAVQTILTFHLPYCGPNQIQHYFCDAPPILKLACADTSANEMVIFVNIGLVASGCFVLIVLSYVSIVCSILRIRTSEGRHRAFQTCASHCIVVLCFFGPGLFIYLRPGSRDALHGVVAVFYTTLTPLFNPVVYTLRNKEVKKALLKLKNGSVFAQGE
Protocol: (§1) For many ligands the cognate OR receptors are not known (“orphan receptors”), or it is unknown among a pool of receptors, which one has the best affinity for a ligand of interest, e.g. a perfumery note of particular interest. Thus, the ligand-induced selection pressure can be used to enrich a specific OR-expressing cell from a pool of OR-expressing cells in the presence of a ligand of interest. HEK293T cells stably expressing RTP1S and RTP2 were seeded into 7 wells of 6-well plates at 330,000 cells/well.
(§2) The next day, the cells of each well were transfected with 2 μg of a PvuI-linearized pGL4.29-CRE-Puro-Hygro-OR construct harboring one of the receptors OR5A1 (NCBI Genbank Gene ID: 219982), OR5A2 (NCBI Genbank Gene ID: 219981), OR5AN1 NCBI Genbank Gene ID: 390195, SEQ ID NO: 70), OR6Y1 (NCBI Genbank Gene ID: 391112), OR10G4 (NCBI Genbank Gene ID: 390264, SEQ ID NO: 72), OR10G7 (NCBI Genbank Gene ID: 390265, SEQ ID NO: 71), or OR10G9 (NCBI Genbank Gene ID: 219870). 24 h after transfection, the cells of all 7 transfections were harvested and pooled. 350 cells of this pool of cells with different OR genes inserted were then seeded into each well of seven 96-well plates.
(§3) 3 days later, cells were stimulated with ligands for either OR5AN1 (10 μM musk ketone), OR10G7 (1 μM eugenol), or OR10G4 (100 μM vanitrope). One plate was treated with DMSO only. 6h after the addition of the OR ligands, puromycin was added to each plate at a final concentration of 1 μg/ml. On every day during the following week, the medium on all plates was replaced with fresh medium containing the corresponding ligand and puromycin. The plates were then searched for wells containing only a single colony of puromycin-resistant cells. The cells of those colonies were transferred to larger plates and grown until they had multiplied to about 8 Mio cells. The genomic DNA of 2 Mio cells of each clone were isolated using the Puregene kit according to the manufacturer's protocol. […]

[2] = target: T2, OR5A2 (clone 3) (Homo sapiens, UniProt Q8NGI9); assay: Ligand-induced puromycin resistance of isolated clone 3 containing OR5A2; conditions: clone 3 (OR5A2), 11 concentrations of puromycin, co-treated with olfactory ligands
T2 construct: expressed in transfected cells; clone 3 selected with musk ambrette and puromycin
T2 sequence (Q8NGI9 with tags, fused parts or gaps): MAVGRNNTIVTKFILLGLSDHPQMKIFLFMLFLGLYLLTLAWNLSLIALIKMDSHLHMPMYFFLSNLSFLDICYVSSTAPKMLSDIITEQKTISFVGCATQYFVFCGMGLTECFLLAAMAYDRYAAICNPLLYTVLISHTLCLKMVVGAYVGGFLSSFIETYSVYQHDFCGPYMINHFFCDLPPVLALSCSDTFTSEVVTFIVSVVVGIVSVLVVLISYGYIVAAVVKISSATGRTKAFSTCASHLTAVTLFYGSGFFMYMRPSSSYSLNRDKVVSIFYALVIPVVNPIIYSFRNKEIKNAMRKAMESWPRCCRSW

[3] = target: T3, pool of cells with OR5A1, OR5A2, OR5AN1, OR6Y1, OR10G4, OR10G7 or OR10G9 (Homo sapiens, UniProt Q8NGI8); assay: Selection of cognate-receptor cells from a pool of OR-expressing cells with the target ligand and puromycin; conditions: 10 μM musk ketone, puromycin 1 μg/ml, pool of 7 OR transfections
T3 construct: expressed in transfected cells; host or cells: HEK293T stably expressing RTP1S and RTP2; 7 separate transfections pooled
T3 sequence (Q8NGI8 1-311): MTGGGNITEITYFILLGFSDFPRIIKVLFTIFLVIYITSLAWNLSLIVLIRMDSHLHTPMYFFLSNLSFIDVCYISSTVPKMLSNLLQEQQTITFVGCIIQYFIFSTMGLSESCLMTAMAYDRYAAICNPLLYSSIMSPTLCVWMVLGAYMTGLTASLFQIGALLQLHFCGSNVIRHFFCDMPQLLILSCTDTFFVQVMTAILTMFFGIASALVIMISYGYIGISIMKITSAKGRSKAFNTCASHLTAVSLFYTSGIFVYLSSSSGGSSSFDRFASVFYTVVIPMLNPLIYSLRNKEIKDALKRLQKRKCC
Protocol: as §1, §2, §3

For `C=CCc1ccc(O)c(OC)c1` [eugenol], the “clones selected with the ligand that contained OR10G7” value [1] was 8 out of 8 and the “puromycin resistance of clone 3 in presence of odorant” value [2] was “no increased resistance”.
For `CC(=O)c1c(C)c([N+](=O)[O-])c(C(C)(C)C)c([N+](=O)[O-])c1C` [musk ketone], the “clones selected with the ligand that contained OR5AN1” value [3] was 9 clones.

From patent US20240426807A1, “SCREENING SYSTEM” (Givaudan SA, priority 2021, published 2024)
